How the values were obtained:
[1] = biological target: Norepinephrine transporter (Rattus norvegicus, UniProt Q9WTR4); experiment: Inhibition of [ring 2,5,6-3H]dopamine reuptake in rat cerebral cortex NET; assay type: tissue-based
[2] = biological target: Sodium-dependent serotonin transporter (Rattus norvegicus, UniProt P31652); experiment: Inhibition of [1,2-3H]serotonin reuptake in rat cerebral cortex SERT; assay type: tissue-based
[3] = biological target: Sodium-dependent dopamine transporter (Rattus norvegicus, UniProt P23977); experiment: Inhibition of [ring 2,5,6-3H]dopamine reuptake in rat striatum DAT; assay type: tissue-based
[4] = biological target: Sodium-dependent serotonin transporter (Rattus norvegicus) (UniProt P31652); experiment: Ratio of fluoxetine Ki to compound Ki for rat cerebral cortex SERT; assay type: tissue-based
Rattus norvegicus [5] = species on record: Rattus norvegicus; experiment: Selectivity ratio of Ki for rat striatum DAT to Ki for rat cerebral cortex SERT; assay type: tissue-based
Rattus norvegicus [6] = species on record: Rattus norvegicus; experiment: Selectivity ratio of Ki for rat cerebral cortex NET to Ki for rat cerebral cortex SERT

Chain of Norepinephrine transporter (Q9WTR4 whole entry): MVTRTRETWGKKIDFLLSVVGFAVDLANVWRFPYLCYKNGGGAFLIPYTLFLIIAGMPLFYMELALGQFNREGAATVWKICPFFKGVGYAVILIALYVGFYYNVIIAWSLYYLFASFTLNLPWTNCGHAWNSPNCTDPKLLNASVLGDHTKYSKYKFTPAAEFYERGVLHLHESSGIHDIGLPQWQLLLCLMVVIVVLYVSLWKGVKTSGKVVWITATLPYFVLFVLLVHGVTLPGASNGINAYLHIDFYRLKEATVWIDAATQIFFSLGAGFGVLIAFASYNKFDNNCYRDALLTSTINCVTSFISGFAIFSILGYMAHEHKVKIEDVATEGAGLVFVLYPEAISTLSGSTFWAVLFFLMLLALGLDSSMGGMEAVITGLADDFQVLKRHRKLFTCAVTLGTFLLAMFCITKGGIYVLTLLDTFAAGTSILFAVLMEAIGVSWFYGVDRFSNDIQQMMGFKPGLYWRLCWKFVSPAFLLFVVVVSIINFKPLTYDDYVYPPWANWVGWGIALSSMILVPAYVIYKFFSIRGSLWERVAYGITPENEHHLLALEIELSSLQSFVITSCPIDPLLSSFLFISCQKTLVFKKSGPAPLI
Chain of Sodium-dependent serotonin transporter (P31652 whole entry): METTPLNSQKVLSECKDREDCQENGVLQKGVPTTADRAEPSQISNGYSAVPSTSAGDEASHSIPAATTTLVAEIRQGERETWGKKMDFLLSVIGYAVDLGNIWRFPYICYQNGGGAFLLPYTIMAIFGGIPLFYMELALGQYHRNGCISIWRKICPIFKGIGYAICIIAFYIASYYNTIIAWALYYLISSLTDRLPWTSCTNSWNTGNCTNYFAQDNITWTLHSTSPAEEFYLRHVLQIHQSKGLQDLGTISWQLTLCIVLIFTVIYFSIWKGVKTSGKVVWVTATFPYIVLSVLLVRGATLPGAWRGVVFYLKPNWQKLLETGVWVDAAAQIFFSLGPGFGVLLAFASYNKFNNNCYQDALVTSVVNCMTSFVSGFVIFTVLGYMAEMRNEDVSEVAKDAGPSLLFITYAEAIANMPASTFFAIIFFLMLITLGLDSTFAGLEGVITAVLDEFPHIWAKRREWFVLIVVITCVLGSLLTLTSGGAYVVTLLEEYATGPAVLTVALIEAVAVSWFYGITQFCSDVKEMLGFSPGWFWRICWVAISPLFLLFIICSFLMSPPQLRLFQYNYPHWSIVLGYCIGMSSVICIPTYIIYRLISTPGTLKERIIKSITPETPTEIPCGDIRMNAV
Chain of Sodium-dependent dopamine transporter (P23977 whole entry): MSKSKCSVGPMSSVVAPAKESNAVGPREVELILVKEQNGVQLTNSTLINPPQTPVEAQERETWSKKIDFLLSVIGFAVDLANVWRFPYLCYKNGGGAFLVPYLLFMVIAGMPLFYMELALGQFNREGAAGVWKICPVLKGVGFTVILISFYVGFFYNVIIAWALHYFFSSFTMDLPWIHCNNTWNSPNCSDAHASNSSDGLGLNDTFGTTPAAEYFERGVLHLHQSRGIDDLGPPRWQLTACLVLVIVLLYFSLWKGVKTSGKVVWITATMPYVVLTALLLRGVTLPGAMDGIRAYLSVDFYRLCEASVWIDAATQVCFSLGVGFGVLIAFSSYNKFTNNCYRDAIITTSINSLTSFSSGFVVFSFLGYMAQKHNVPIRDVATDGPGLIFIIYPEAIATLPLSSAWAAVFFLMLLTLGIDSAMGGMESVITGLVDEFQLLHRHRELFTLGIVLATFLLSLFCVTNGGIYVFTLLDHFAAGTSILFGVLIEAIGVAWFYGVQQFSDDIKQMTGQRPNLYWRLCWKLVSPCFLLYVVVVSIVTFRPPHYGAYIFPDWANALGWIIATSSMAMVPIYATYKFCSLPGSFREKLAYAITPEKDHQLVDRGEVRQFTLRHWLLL
Chain of Sodium-dependent serotonin transporter (Rattus norvegicus) (P31652 whole entry): as the sequence (P31652 whole entry) above

Ki [1] [µM] | Compound | Ki [2] [µM] | further results
0.152 | Oc1cc(O)cc(CN[C@@H]2CO[C@H](C(c3ccccc3)c3ccccc3)C[C@H]2O)c1 | – | –
0.0102 | O[C@@H]1C[C@@H](C(c2ccc(F)cc2)c2ccc(F)cc2)OC[C@H]1NCc1ccc2c(c1)OCO2 | 0.4 | –
0.0288 | COc1cccc(CN[C@@H]2CO[C@H](C(c3ccc(F)cc3)c3ccc(F)cc3)C[C@H]2O)c1 | – | –
0.0442 | COc1cc(O)cc(CN[C@@H]2CO[C@H](C(c3ccccc3)c3ccccc3)C[C@H]2O)c1 | – | –
0.00585 | COc1cccc(CN[C@@H]2CO[C@H](C(c3ccccc3)c3ccccc3)C[C@H]2O)c1 | – | –
0.0302 | COc1ccc(CN[C@@H]2CO[C@H](C(c3ccccc3)c3ccccc3)C[C@H]2O)cc1O | – | –
0.0337 | COc1cc(CN[C@@H]2CO[C@H](C(c3ccccc3)c3ccccc3)C[C@H]2O)ccc1O | 0.223 | –
0.0258 | O[C@@H]1C[C@@H](C(c2ccc(F)cc2)c2ccc(F)cc2)OC[C@H]1NCc1ccc2c(c1)CCO2 | – | –
0.0265 | O[C@@H]1C[C@@H](C(c2ccc(F)cc2)c2ccc(F)cc2)OC[C@H]1NCc1ccc2occc2c1 | – | –
0.0336 | O[C@@H]1C[C@@H](C(c2ccccc2)c2ccccc2)OC[C@H]1NCc1ccc2occc2c1 | – | –
0.0284 | COc1ccc(CN[C@@H]2CO[C@H](C(c3ccc(F)cc3)c3ccc(F)cc3)C[C@H]2O)cn1 | – | –

Compound | Ki [1] [µM] | Ki [2] [µM] | further results
COc1ccc(CN[C@@H]2CO[C@H](C(c3ccccc3)c3ccccc3)C[C@H]2O)c(F)c1 | 0.00933 | 0.064 | Ki [3]: 0.0518 µM
Oc1ccc(CN[C@H]2CC[C@@H](C(c3ccc(F)cc3)c3ccc(F)cc3)OC2)cc1 | 0.0134 | 0.334 | –
Oc1ccc(CN[C@@H]2CO[C@H](C(c3ccc(F)cc3)c3ccc(F)cc3)C[C@H]2O)cc1F | 0.00737 | – | Ki [3]: 0.0131 µM
COc1cc(CN[C@@H]2CO[C@H](C(c3ccc(F)cc3)c3ccc(F)cc3)C[C@H]2O)ccc1O | 0.00476 | – | –
COc1ccc(CN[C@@H]2CO[C@H](C(c3ccccc3)c3ccccc3)C[C@H]2O)cn1 | 0.0381 | 0.0422 | Ki [3]: 0.0441 µM
c1ccc(C(c2ccccc2)[C@@H]2CC[C@H](NCc3ccc4occc4c3)CO2)cc1 | 0.0252 | – | Ratio Ki [4]: 20; Ratio Ki (Rattus norvegicus [5]): 115; Ratio Ki (Rattus norvegicus [6]): 35
COc1ccc(CN[C@@H]2CO[C@H](C(c3ccccc3)c3ccccc3)C[C@H]2O)cc1F | 0.0416 | 0.00902 | Ki [3]: 0.0482 µM
COc1cc(O)cc(CN[C@@H]2CO[C@H](C(c3ccc(F)cc3)c3ccc(F)cc3)C[C@H]2O)c1 | 0.00491 | – | –
